Reference: PubChem BioAssay (NCI)
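Method: 48-hour compound exposure of cells in 96-well plates, five concentrations, linear interpolation of endpoints. TGI: total growth inhibition.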 Where a SMILES comes first, the peptide text is derived from it. The star is where a group is joined. Boc = CC(C)(C)OC(=O)*; OtBu = CC(C)(C)O*

Columns and labels:
Assay in all cases: NCI anticancer screen, dose series, 48 h
[1] = test system: NCI-H23 lung
[2] = test system: IGROV1 ovarian
[3] = test system: MOLT-4 leukemia
[4] = test system: TK-10 renal
[5] = test system: MCF7 breast
[6] = test system: SF-295 CNS
[7] = test system: SR leukemia
[8] = test system: KM12 colon
[9] = test system: SK-MEL-28 melanoma
[10] = test system: A549 NSCLC
[11] = test system: CCRF-CEM leukemia

SMILES	TGI [1]	TGI [2]	TGI [3]	TGI [4]	TGI [5]	TGI [6]	TGI [7]	TGI [8]	TGI [9]	TGI [10]	TGI [11]
CC(=O)OCC1OC(Sc2nc(-c3ccccc3)c(C#N)c(=O)n2C2OC(COC(C)=O)C(OC(C)=O)C(OC(C)=O)C2OC(C)=O)C(OC(C)=O)C(OC(C)=O)C1OC(C)=O (stereo not given)	> 100 µM	> 100 µM	> 100 µM	> 100 µM	> 100 µM	> 100 µM	> 100 µM	> 100 µM	> 100 µM	> 100 µM	–
COc1ccc(C2OC2C(=O)C23CC4CC(CC(C4)C2)C3)cc1 (stereo not given)	> 100 µM	> 100 µM	> 100 µM	> 100 µM	> 100 µM	> 100 µM	–	> 100 µM	> 100 µM	> 100 µM	> 100 µM
COC(=O)[C@@H](N1C(=O)c2ccccc2C1=O)C1(C)CC(Cl)=NO1 (stereo not given in full)	> 100 µM	58.2 µM	–	82.4 µM	> 100 µM	74.3 µM	–	> 100 µM	> 100 µM	> 100 µM	> 100 µM
Nc1ccc(Oc2ccc(C3(c4ccc(Oc5ccc(N)c(O)c5)cc4)C4CC5CC(C4)CC3C5)cc2)cc1O	–	–	4.08 µM	4.54 µM	–	14.9 µM	3.11 µM	4.59 µM	–	3.14 µM	6.47 µM
CC(C)C1CC(CO)(CNc2nc(N)nc(Cl)c2C=O)C1 (stereo not given)	4.64 µM	3.52 µM	5.08 µM	> 100 µM	> 100 µM	44.4 µM	–	> 46.7 µM	3.62 µM	31.4 µM	6.36 µM
FC(F)(F)c1ccc2c(c1)nc(Cc1ccc(Cl)cc1)n2CC1CCCN2CCCCC12 (stereo not given)	–	22 µM	10.4 µM	24.7 µM	21.8 µM	22.3 µM	7.13 µM	21.4 µM	6.38 µM	25.1 µM	–
O=c1[nH]c2ccccc2c(=O)c2cc3ccccc3cc12	47.8 µM	> 100 µM	> 100 µM	37 µM	> 100 µM	53.9 µM	–	> 100 µM	> 100 µM	> 100 µM	> 100 µM
CC(C)OP(=O)(OC(C)C)C(=Nc1ccc(N=C(NNc2ccc([N+](=O)[O-])cc2)P(=O)(OC(C)C)OC(C)C)cc1)NNc1ccc([N+](=O)[O-])cc1	> 100 µM	> 100 µM	> 100 µM	> 100 µM	–	–	> 100 µM	> 100 µM	> 100 µM	> 100 µM	> 100 µM
COc1cc(N(CCC#N)CCC#N)ccc1/C(N=Nc1cccc([N+](=O)[O-])c1)=N\NC(=O)c1ccc(C)cc1	> 100 µM	> 100 µM	> 100 µM	> 100 µM	> 100 µM	> 100 µM	–	> 100 µM	> 100 µM	> 100 µM	99.2 µM
CSc1ccc(/C=C2\N=C(c3ccccc3)N(NC(=O)c3c(Cl)c(Cl)c(Cl)c(Cl)c3-c3nc4ccccc4[nH]3)C2=O)cc1	83 µM	> 100 µM	77.3 µM	–	> 100 µM	> 100 µM	> 100 µM	65.6 µM	> 100 µM	> 100 µM	> 100 µM
CC(=O)OCC1OC(NC(=S)Nn2c(-c3ccccc3)nc3ccccc3c2=O)C(OC(C)=O)C(OC(C)=O)C1OC(C)=O (stereo not given)	> 100 µM	> 100 µM	> 100 µM	–	> 100 µM	> 100 µM	88.7 µM	> 100 µM	> 100 µM	> 100 µM	> 100 µM
COC(=O)c1c(O)ccc2c1c1c(n2CCc2ccccc2)C(=O)c2ccccc2C1	74.1 µM	46 µM	> 100 µM	> 100 µM	42.5 µM	–	> 100 µM	> 100 µM	53.8 µM	> 100 µM	60.6 µM
CCOC(=O)/C(C#N)=c1/s/c(=C(\O)N/N=C/c2ccc(OC)cc2)c(=N)n1-c1ccccc1	> 100 µM	> 100 µM	> 100 µM	> 100 µM	–	> 100 µM	> 100 µM	> 100 µM	> 100 µM	> 100 µM	> 100 µM
CC(=O)OC(C(=O)NNC(=O)OC(C)(C)C)c1ccccc1 (stereo not given)	> 100 µM	> 100 µM	> 100 µM	> 100 µM	> 100 µM	> 100 µM	> 100 µM	> 100 µM	> 100 µM	> 100 µM	–
CN(C)CCCCN1c2ccccc2Sc2ccc(N=[N+]=[N-])cc21	27.7 µM	11.7 µM	5.85 µM	24.7 µM	5.26 µM	17.8 µM	–	8.76 µM	3.6 µM	22.6 µM	8.39 µM
N#CC(C#N)=CNC(=S)Nc1ccc(S(=O)(=O)Nc2nccs2)cc1	> 100 µM	> 100 µM	> 100 µM	> 100 µM	> 100 µM	> 100 µM	–	> 100 µM	> 100 µM	> 100 µM	–
CC(=O)Nc1ccc2c3c(cc(O)c2c1)N(C(=O)CCCCCCC(=O)Nc1ccc2c4c(cc(O)c2c1)N(C(=O)OC(C)(C)C)CC4CCl)CC3CCl (stereo not given)	0.346 µM	> 33.8 µM	> 100 µM	–	0.739 µM	0.957 µM	0.0243 µM	0.804 µM	–	> 32.3 µM	0.0259 µM
O=C(O)c1ccc2nc(-c3ccccn3)c(-c3ccccn3)nc2c1	> 100 µM	> 100 µM	> 100 µM	> 100 µM	> 100 µM	> 100 µM	> 100 µM	> 100 µM	> 100 µM	–	> 100 µM
CC(=O)OCCn1c(Cc2ccc(Cl)cc2)nn(C(C)=O)c1=O	> 100 µM	> 100 µM	> 100 µM	> 100 µM	> 100 µM	> 100 µM	–	> 100 µM	> 100 µM	> 100 µM	> 100 µM
Nc1cc2c(C3OC(CO)C(O)C3O)[nH]nc2c(=S)[nH]1 (stereo not given)	> 100 µM	> 100 µM	> 100 µM	–	–	> 100 µM	> 100 µM	> 100 µM	> 100 µM	> 100 µM	> 100 µM
CC(C)(C)OC(=O)CC(NC(=O)OC(C)(C)C)C(=O)NC(Cc1ccccc1)C(N)=O (stereo not given) (Boc-Asp(OtBu)-Phe-NH2; configuration not given here)	> 100 µM	> 100 µM	–	> 100 µM	> 100 µM	> 100 µM	–	> 100 µM	> 100 µM	> 100 µM	> 100 µM
